In patent US9676997B2, “Compositions and methods for stabilizing luminogenic substrates” (Promega Corporation, priority 2014, dated 2017):

Tests used:
Format in all cases: physicochemical
[1] = Stability of 1.25 mM furimazine in DMSO with or without 225 mM ATT, HPLC; details: room temperature, 40° C., and 60° C., in the presence of light
Method: To further examine the stabilization of furimazine by ATT, stability of furimazine was measured at room temperature, 40°, and 60° C. in a different organic solvent, namely DMSO. This study was performed in the presence of light.
Specifically, a 2× stock solution of ATT in DMSO was prepared, in which the final concentration of ATT was 64.4 mg/mL. A 2× stock solution of furimazine in DMSO was also prepared, in which the final concentration of furimazine was 0.95 mg/mL. In one vial, the 2× ATT stock solution was diluted 1:1 in the 2× furimazine stock solution to create a solution containing 225 mM ATT and 1.25 mM furimazine. In a second vial, furimazine was diluted 1:1 in DMSO to create a control solution without the additive ATT (i.e., “no additive furimazine” control) and containing 1.25 mM furimazine.
The content of each vial was dispensed into separate, clear HPLC vials with insert and these HPLC vials were placed at room temperature (i.e., about 20° C.), 40° C., and 60° C. There was one HPLC vial per time point for each temperature.
Stability was measured by HPLC with 5 μL injection and detection at 262 nm. In each chromatogram, the area percentage of furimazine was determined.

[2] = Stability of 2.3 mM furimazine at 37° C. in the dark with or without 200 mM thionucleoside, luminescence with NANOLUC enzyme; details: 50% propylene glycol:50% ethanol
Method: Specifically, a stock solution of furimazine in 50% propylene glycol:50% ethanol (v/v) was prepared, in which the final concentration of furimazine by absorbance was 4.6 mM. The furimazine stock solution was then diluted 1:1 in 50% propylene glycol:50% ethanol (v/v) to create a control solution without the additives ATT, TAK-0014 and TAK-0002 (i.e., “no additive furimazine” control) and containing 2.3 mM furimazine. 400 mM stock solutions of ATT, TAK-0014 and TAK-0002 were prepared in 50% propylene glycol:50% ethanol (v/v). Each of the ATT, TAK-0014 and TAK-0002 stock solutions was then diluted 1:1 in the 4.6 mM furimazine stock solution to yield solutions containing 200 mM ATT, TAK-0014 or TAK-0002, and 2.3 mM furimazine.
Each sample was separated into multiple amber tubes and incubated at 37° C. in a dark incubator (i.e., in the absence of light). Aliquots were taken from each sample at various time points and stored at −20° C. in the dark (i.e., in the absence of light) until all time points were collected.
To measure luminescence in the aliquots, each aliquot was diluted 1:50 in buffer (NANOGLO buffer, Promega Corporation) to yield 46 μM furimazine. These diluted aliquots were further diluted 1:10 in buffer (NANOGLO buffer, Promega Corporation) to yield 4.6 μM furimazine. 504 of each dilution (i.e., the twice diluted (0.1) aliquots) was mixed with 504, of CO2-independent media+10% fetal bovine serum (FBS) and 0.4 ng/mL luminogenic enzyme (NANOLUC enzyme, Promega Corporation). Luminescence was measured on a luminometer (GLOMAX Multi Plus luminometer, Promega Corporation). Relative light units (RLUs) were normalized for each time point by the RLU value at the 0 days time point. The percent activity from the 0 days time point (i.e., t=0) was plotted against time (days) for each sample as shown in FIG. 15A. In FIG. 15A, B-ATT denoted TAK-0002 and E-ATT denoted TAK-0014.
Error in Table 15 was the standard error from a regression calculation and Fz denoted furimazine, B-ATT denoted TAK-0002, and E-ATT denoted TAK-0014.

[3] = Stability of 1.25 mM coelenterazine in 50% ethanol and 50% propylene glycol with or without 225 mM ATT, HPLC and Arrhenius plots; details: 225 mM ATT, over time at different temperatures
Method: The stability of coelenterazine in the presence and absence of ATT was measured over time at different temperatures. Specifically, 1.25 mM coelenterazine was present in a solution of 50% ethanol and 50% propylene glycol (i.e., the solution without ATT) or a solution of 50% ethanol and 50% propylene glycol with 225 mM ATT (i.e., the solution with ATT). These two solutions were incubated at −20° C., room temperature (RT), 40° C., or 60° C. and analyzed at 0 days, 1 day, 3 days, 7 days, 15 days, and 30 days.
Following incubation, high performance liquid chromatography (HPLC) was utilized to identify the components of the respective solutions at each time point. Specifically, an Agilent 1100 HPLC instrument was used and equipped with a quaternary pump, thermostatted autosampler and column compartment, and a G1311B diode-array detector. The column used was a Synergi-MAX-RP (Phenomenex, Torrance, Calif.) 100 AÅ 50×4.6 2.5 μm. The run on the HPLC was a gradient run with 0.1% TFA in water and acetonitrile. Absorbance was measured at 262 nanometers (nm). Standards of coelenterazine and its known degradants were run to confirm both the retention time and absorbance trace. 5 μl of each solution was injected and the retention time of coelenterazine was 3.9 minutes at room temperature.
The results of the HPLC analysis are shown below in Tables 1 and 2 and FIGS. 1A and 1B, in which the values are reported as relative peak area percentage at 262 nm (i.e., the lamba max of the substrate). […] In each of FIGS. 1A and 1B, diamond is 1.25 mM coelenterazine incubated over time with or without 225 mM ATT, respectively, at −20° C., triangle is 1.25 mM coelenterazine incubated over time with or without 225 mM ATT, respectively, at room temperature (RT), star is 1.25 mM coelenterazine incubated over time with or without 225 mM ATT, respectively, at 40° C., and cross is 1.25 mM coelenterazine incubated over time with or without 225 mM ATT, respectively, at 60° C.
From the HPLC analysis, the half-life of coelenterazine in the presence of ATT at 40° C. and 60° C. was calculated to be 23 days and 5 days, respectively, while the half-life of coelenterazine in the absence of ATT at 40° C. and 60° C. was calculated to be 9.5 days and 2 days, respectively (see Table 3 below).
Additionally, Arrhenius plots were generated for coelenterazine in the presence and absence of ATT to calculate the half-life of coelenterazine at various temperatures. The Arrhenius equation is as follows: […]
In FIG. 7, the slope was −8636.59, the intercept was 24.1199, and R^2 was 0.9983.
In FIG. 8, the slope was −7382.51, the intercept was 21.2598, and R^2 was 0.9570.

Cc1n[nH]c(=S)[nH]c1=O [ATT, 6-methyl-3-thioxo-3,4-dihydro-1,2,4-triazin-5(2H)-one]
stabilization of furimazine in DMSO against decomposition [1]: stabilized furimazine in DMSO against decomposition at different temperatures
stabilization of furimazine against decomposition in the absence of light [2]: stabilized furimazine against decomposition in the absence of light
stabilization of coelenterazine against decomposition [3]: stabilized coelenterazine against decomposition over time at different temperatures
